According to article PMC4533833 (ACS chemical biology, 2015):
Where two headings read alike, the source gives them in different places.

Assays:
V561M FGFR1 = assay: Intrinsic protein fluorescence quenching titration, V561M FGFR1; format: binding, Human; details: for fold decrease in affinity (increase in Kd) for V561M relative to WT FGFR1: Kd V561M FGFR1 versus Kd WT FGFR1
FGFR1 [1] = details: read-out: IC50 (cells); cited from earlier work
FGFR1 [2] = details: read-out: IC50 (enzyme); cited from earlier work

| Compound | fold greater loss of affinity for E3810 compared to AZD4547 conferred by the V561M FGFR1 mutation (V561M FGFR1; E3810 versus AZD4547) | fold decrease in affinity (increase in Kd) for V561M relative to WT FGFR1 (V561M FGFR1) [fold] | IC50 (FGFR1 [1]) [nM] | IC50 (FGFR1 [2]) [nM] |
| --- | --- | --- | --- | --- |
| CNC(=O)c1cccc2cc(Oc3ccnc4cc(OCC5(N)CC5)c(OC)cc34)ccc12 [E3810] | over 150 fold | 5000 |  |  |
| AZD4547 |  | 32 | 12 | 0.2 |
